Measurements reported in patent US9844521B2, “Pharmaceutical composition comprising ginger extract or shogaol” (UNIVERSITY-INDUSTRY COOPERATION GROUP OF KYUNG HEE …, priority 2008, dated 2017).

Assays:
E. coli WP2 uvrA = assay: Back mutation test (genotoxicity in bacteria), E. coli strain; settings: compared with negative control
Procedure: In order to evaluate genotoxicity in bacteria, a back mutation test was performed using histidine-requiring salmonella typhimurium strains (TA 100, TA 1535, TA 98, and TA 1537) and an E. coli strain (E. coli WP2 uvrA). As a result, a positive control has a substantially greater colony number than a negative control. […] Accordingly, it was confirmed that the ginger extract and shogaol all had stability in the genotoxicity test.

[1] = test system: rat primary mesencephalic dopaminergic cells; assay: Protection of dopamine cells against 6-OHDA neurotoxicity (TH immunohistochemistry); format: cell-based; settings: 0.01 μM, 10 μM 6-OHDA for 18 hours; 6-OHDA group 34.00±5.77% of the control
Procedure: Female Sprague-Dawley rats (2-week old) were used, and shogaol was obtained from WAKO Company (Japan).
Fetal mesencephalon tissues of Sprague-Dawley rats […] were desquamated, and mechanically dissociated by using a forcept. The tissues were treated with trypsin and the number of cells was counted, and the cells were seeded on a cover slip coated with poly-L-lysine (PLL), and then proliferated in an incubator including 5% CO2 and 95% air at a temperature of 37 °C for 5 days. A fetal bovine serum (FBS)-free media was treated with 0.01 μM or 0.1 μM of shogaol after the shogaol was diluted, or the ginger extract (the ethanol extract, the hexane fraction, the ethyl acetate fraction, the butanolfraction, and the water fraction prepared according to Example 1) after the ginger extract was diluted. […]
Cells immobilized by using 4% PFA were washed with PBS and then, dehydrated with 1% hydrogen peroxide for 15 minutes. […] After the color-producing using DAB, a cover slip was separated and then mounted on a slide by using a gel mount and the number of cells was counted.
Cells were color-produced by immunohistochemistry in the same manner as Experimental Example 3-1, and the number of cells was counted and the results are shown in FIGS. 8 and 9.

PC12 cells = assay: Neurite outgrowth of PC12 cells treated with conditioned media of C6 cells; format: cell-based, mouse; settings: 20 μM in C6 conditioned media, microscope, fourth day after treatment
Procedure: This test was performed using a glioma C6 cell line of […] which is known as a cell line that secretes a nerve growth factor (NGF), and a pheochromocytoma PC12 cell line of […] which is known as a cell line that grows neurite with respect to an NGF in a similar way as a neuron. C6 cells and PC12 cells were obtained from Korean Cell Line Bank (KCLB Nos. 10107 and 21721, respectively). C6 cells were cultured using DMEM media (Gibco BRL, USA) supplemented with 3.4 g/L of sodium bicarbonate (NaHCO3), 10% fetal bovine serum, and 1% penicillin-streptomycin antibiotics (10000 U/ml), and PC12 cells were cultured using RPMI1640 medium (Gibco BRL, USA) supplemented with 2.0 g/L of sodium bicarbonate, 10% horse serum, 5% fetal bovine serum, and 1% penicillin-streptomycin antibiotics (10000 U/ml). […]
C6 cells attached to a 100 mm culture vessel were separated from the culture vessel by using 0.25% Trypsin-EDTA (Gibco BRL, USA), and then 10 ml of fresh medium was added to the cells to prepare a cell suspension. Then, the number of viable cells was counted and calculated by using a cell number counter. The cells were divided based on the counted cell number such that 2×10^6 cells were contained in a 100 mm culture dish. […]

SD rats = assay: Acute toxicity test; settings: 0.1 mg/10 ml/kg to 5000 mg/10 ml/kg, 2 weeks

CCCCC/C=C/C(=O)CCc1ccc(O)c(OC)c1 [shogaol, (E)-1-(4-hydroxy-3-methoxyphenyl)dec-4-en-3-one]
colony number (back mutation) (E. coli WP2 uvrA): the colony number was not increased | number of dopamine positive cells [1]: 57.25±5.65% | growth of neurite of the PC12 cells (PC12 cells): increased | body weight (SD rats): weight change with respect to a test material did not occur | general symptom (SD rats): abnormal symptoms with respect to a test material were not found
